In patent publication US20210069230A1, “SYNERGISTIC DRUG COMBINATIONS PREDICTED FROM GENOMIC FEATURES AND SINGLE-AGENT RESPONSE PROFILES” (THE BROAD INSTITUTE, INC., priority 2018, published 2021):

How the values were obtained:
G402 cells = test: Overexpression of MGLL WT or enzyme-dead MGLL S132A, GSK-J4 sensitivity; assay type: cell-based
Procedure: Cell lines were taken from viably frozen stocks of the same original provenance as for CTRP and DepMap data, with identity confirmed by SNP-based DNA fingerprinting as described previously (12, 13, 39). Cell lines were propagated using the same media and culture conditions as for CTRPv2.0 experiments. For drug-treatment assays, 1000 cells per well were plated into 30 or […], of media in 384-well plates. For live-cell imaging, cells were plated into clear-bottom plates (Corning) and imaged on an IncuCyte S3 throughout the course of the experiment. For CellTiter-Glo experiments, the initial viability of a subset of plated cells was established at the same time as compound addition using CellTiter-Glo as described previously (24). Remaining cells were exposed to compounds and/or vehicle (constant DMSO volume) using a Tecan D300e Digital Dispenser, and CellTiter-Glo was added 72 hours later. DMSO- and D0-normalized concentration-response curves were generated using four-parameter nonlinear regression using the drc package in R (40). […] For calculation of drug combination effects, curves were fit and deviation from the null model (Loewe additivity) assessed using the BIGL package in R (reference: PMID 29263342) (41). […] Overall significance was assessed using the bootstrapped meanR test (n=1000 iterations), and per-concentration significance using maxR, as described by the package authors. […]

MGLL = MGLL (Homo sapiens, UniProt Q99685); test: Recombinant protein/mass spec assay of MGLL-mediated modification; assay type: biochemical
Source text: The GSK-J4-modifying impact of MGLL is examined further via a recombinant protein/mass spec assay.

HEC1A and SUIT2 cells = test: CRISPR-Cas9 knockout of MGLL, GSK-J4 sensitivity; assay type: cell-based; settings: 4 different sgRNAs
Procedure: Cas9 stably-infected HEC1A, MEWO, SUIT2, and WM2664 cells and sgRNAs (pXPR_BRD003 vector) targeting AIFM2, IRS2, MGLL, or control guides (non-cutting) were acquired from the GPP (FIG. 23). Cell line identities were confirmed to match parental cells using SNP fingerprinting. Virus was generated and infection carried out as described above. After puromycin selection (3 μg/mL for MEWO, 1.5 μg/mL for WM2664, 2 μg/mL for SUIT2 and HEC1A), cells were seeded in 384-well plates for compound treatment or harvested for Western blotting as described above.
Further, MGLL knockout in HEC1A cells was rescued by overexpression of MGLL when using an sgRNA that targeted MGLL across an intron-exon boundary and that therefore could not cut the MGLL ORF.

[1] = tested on: G402 and CJM cells overexpressing MGLL; test: Lentiviral ORF overexpression, compound sensitivity (CellTiter-Glo, GR); assay type: cell-based; settings: 72 hours
Procedure: (§1) Cell lines were taken from viably frozen stocks of the same original provenance as for CTRP and DepMap data, with identity confirmed by SNP-based DNA fingerprinting as described previously (12, 13, 39). Cell lines were propagated using the same media and culture conditions as for CTRPv2.0 experiments. […] For live-cell imaging, cells were plated into clear-bottom plates (Corning) and imaged on an IncuCyte S3 throughout the course of the experiment. For CellTiter-Glo experiments, the initial viability of a subset of plated cells was established at the same time as compound addition using CellTiter-Glo as described previously (24). […] DMSO- and D0-normalized concentration-response curves were generated using four-parameter nonlinear regression using the drc package in R (40). Biphasic curves were also fit and prioritized relative to standard four-parameter curves where appropriate using the BIC (Bayesian information criteria) metric. […] General-purpose optimization (Nelder-Mean algorithm) was used for single-agent fits, and the “model” option was used to predict variance. Overall significance was assessed using the bootstrapped meanR test (n=1000 iterations), and per-concentration significance using maxR, as described by the package authors.
Infection and selection were carried out according to GPP Viral Infection protocols, followed by cell seeding in 384-well plates for compound treatment or harvesting for Western blotting as described above.
Parental cell lines were virally transduced with cDNAs that constitutively overexpressed BCL2L1, AIFM2, or MGLL (in G402 and CJM cells); ABCB1 or MGMT (in WM2664 cells); SLC7A11 (in BT12 and G402 cells); MCL1 (in HCC1500 cells); or IRS2 (in T47D cells) and subsequently drug sensitivity was measured. To account for potential differences in growth rates and to distinguish between cytostatic and cytotoxic drug responses, the normalized growth rate inhibition (GR) metric was used to assess cell viability (FIG. 3A) (18).

KMRC3 cells = test: IncuCyte live-cell microscopy of cellular proliferation; assay type: cell-based
Procedure: as §1

[2] = tested on: ATF4/metallothionein/ER stress; settings: cited from earlier work
[3] = cited from earlier work

Chain of MGLL (Q99685 whole entry): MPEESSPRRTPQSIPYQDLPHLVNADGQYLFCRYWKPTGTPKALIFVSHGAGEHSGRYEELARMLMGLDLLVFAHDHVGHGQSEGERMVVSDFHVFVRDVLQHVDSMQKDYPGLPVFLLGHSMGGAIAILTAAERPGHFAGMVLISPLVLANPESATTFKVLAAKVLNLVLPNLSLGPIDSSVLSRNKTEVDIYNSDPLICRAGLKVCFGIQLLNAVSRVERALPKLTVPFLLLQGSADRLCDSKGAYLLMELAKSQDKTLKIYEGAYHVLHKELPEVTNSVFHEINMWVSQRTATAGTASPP

Structure (SMILES): CCOC(=O)CCNc1cc(N2CCc3ccccc3CC2)nc(-c2ccccn2)n1 [GSK-J4]
- sensitivity of MGLL S132A overexpressing cells versus parental or control-infected cells (G402 cells; MGLL S132A): equally sensitive
- effect of MGLL WT overexpression (G402 cells; MGLL WT): significant resistance
- MGLL-mediated modification (MGLL): confirmed
- effect of knockout of MGLL on response (HEC1A and SUIT2 cells): sensitize
- shift in GR50 conferred by MGLL overexpression [1]: 20 fold
- rescue of proliferation effects by MGLL (KMRC3 cells): durably rescued
- time at which effects on cell proliferation were observed (KMRC3 cells): ≤ 12 h
- time to induction of ATF4/metallothionein/ER stress [2]: ≤ 6 h
- cellular permeability [3]: high cellular permeability
